Consider eleven compounds from ChEMBL document CHEMBL1201862, “PubChem BioAssay data set” (2004).

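Tested at 5 concentrations; 48 h exposure; 96-well plates; endpoints linearly interpolated, else capped at highest concentration. The concentration for 50% growth inhibition is given as GI50.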 Active and inactive are the calls of the source. Cut-off read from the data, not from the text of the source: active = GI50 up to about 1.1 µM and inactive = higher.

For orientation: GI50 means the concentration giving 50% growth inhibition.

Common to all, as to test: DTP human tumour cell line panel, 48 h
In assay [1] the test system is CCRF-CEM.
Assay [2] concerns NCI-H226.
The subject of assay [3] is U-251.
The test system of assay [4] is MOLT-4.
Assay [5] relates to SK-MEL-2.
In assay [6] the test system is MDA-MB-231.
The subject of assay [7] is HCC 2998.
Assay [8] relates to SW-620.
Assay [9] relates to HT-29.
Assay [10] concerns UO-31.
Assay [11] deals with SF-539.
The subject of assay [12] is HCT-116.
In assay [13] the test system is M14.
The test system of assay [14] is HOP-62.
Assay [15] concerns OVCAR-3.
The test system of assay [16] is NCI-H460.
In assay [17] the test system is UACC-257.
The test system of assay [18] is IGROV-1.
In assay [19] the test system is OVCAR-4.
In assay [20] the test system is RXF 393.

For the compound `CNC(=O)CN(C)C(=O)CCC(=O)N(C)C`, the GI50 in assay [1], in assay [2], in assay [3], in assay [4], in assay [5] and in assay [6] was > 100 µM (inactive) throughout. Besides, the GI50 in assay [7], in [8], in assay [9], in [10], in assay [11] and in assay [12] was > 100 µM (inactive) throughout. Besides, the GI50 in [13], in assay [14], in assay [15], in assay [16], in assay [17] and in assay [18] was > 100 µM (inactive) each time.
`Clc1ccc(OCc2nn3c(CCc4nnc5sc(COc6ccc(Cl)cc6)nn45)nnc3s2)cc1`: the GI50 in assay [1] is 29.1 µM (inactive); in [2] it was 30.3 µM (inactive); in [3] it was 20.7 µM (inactive); in assay [19], 14.7 µM (inactive); in [4], 6.62 µM (inactive); in assay [5] it was 25.7 µM (inactive). Besides, the GI50 was 19.8 µM (inactive) in assay [6]; 25.2 µM (inactive) in assay [8]; 27.8 µM (inactive) in assay [9]; 1.53 µM (inactive) in [10]; 27.9 µM (inactive) in assay [11]; 21.9 µM (inactive) in assay [12]. Moreover, the GI50 in assay [13] is 33.7 µM (inactive); in assay [14], 23.7 µM (inactive); in assay [15] it was 16 µM (inactive); in assay [16], 18.4 µM (inactive); in [20], 23.8 µM (inactive); in [17], 22.9 µM (inactive). Also, in [18], the GI50 was 16.8 µM (inactive).
Regarding `CC1=CC(=O)/C(=C/NC(=S)c2ccccc2)C(=O)O1`, the GI50 in assay [2], in [3], in assay [19], in assay [4], in [5] and in assay [6] was > 100 µM (inactive) each time. In addition, the GI50 in assay [7], in assay [8], in assay [9], in assay [10], in assay [11] and in assay [12] was > 100 µM (inactive) throughout. The GI50 in assay [13], in [14], in [15], in assay [16], in assay [17] and in assay [18] was > 100 µM (inactive) each time.
As to `CC1Oc2c(c(=O)oc3ccccc23)[C@@]1(C)CC1C[C@H](C)C(=O)O1` (stereo not given in full), the GI50 is 5.96 µM (inactive) in [1]; > 100 µM (inactive) in assay [2]; 35.1 µM (inactive) in [3]; 10.9 µM (inactive) in assay [4]; 25.9 µM (inactive) in assay [5]; 31.1 µM (inactive) in [6]. For the same compound, the GI50 was 23.2 µM (inactive) in assay [7]; 26.9 µM (inactive) in [8]; 27.1 µM (inactive) in assay [9]; 27.6 µM (inactive) in assay [10]; 25.2 µM (inactive) in assay [11]; 15.1 µM (inactive) in assay [12]. For the same compound, the GI50 in assay [13] is 20.3 µM (inactive); in assay [14], 47.6 µM (inactive); in assay [15], 20.9 µM (inactive); in assay [16] it was > 10 µM (inactive); in [17] it was 35.2 µM (inactive); in [18], 33.8 µM (inactive).
On to `CC(C)n1c2c(c3ccccc3c1=O)C(=O)c1ccccc1-2`, for which the GI50 was > 100 µM (inactive) in assay [1]; > 100 µM (inactive) in assay [2]; > 100 µM (inactive) in assay [3]; 50.5 µM (inactive) in [19]; > 100 µM (inactive) in assay [4]; > 100 µM (inactive) in assay [5]. For the same compound, the GI50 in assay [6], in [7], in assay [8], in assay [9], in assay [10] and in [11] was > 100 µM (inactive) each time. Besides, the GI50 in [12], in assay [13], in assay [14], in assay [15], in [17] and in assay [18] was > 100 µM (inactive) in each case.
`CC(=O)Nc1ccc(Cc2ccc3nc(O)cc(C)c3c2)cc1`: the GI50 in assay [1] was > 100 µM (inactive); in [2], > 100 µM (inactive); in assay [3], 30.1 µM (inactive); in assay [19] it was > 100 µM (inactive); in assay [4], > 100 µM (inactive); in [5] it was 22.2 µM (inactive). Besides, the GI50 in assay [6] is 28.8 µM (inactive); in assay [8], > 100 µM (inactive); in assay [9], 50.6 µM (inactive); in assay [10], > 100 µM (inactive); in [11], 68.7 µM (inactive); in assay [12], 83.8 µM (inactive). The GI50 in assay [13] was > 100 µM (inactive); in [14], 33.8 µM (inactive); in [15], > 100 µM (inactive); in assay [16] it was 62.1 µM (inactive); in assay [20], 35.5 µM (inactive); in [17] it was 67 µM (inactive). For the same compound, in [18], the GI50 is 61.2 µM (inactive).
`COc1nc(-c2c[nH]c3ccccc23)cnc1N`: the GI50 was 0.809 µM (active) in [1]; 31 µM (inactive) in assay [3]; 29.6 µM (inactive) in assay [19]; 2.56 µM (inactive) in [4]; 25 µM (inactive) in assay [5]; 18.1 µM (inactive) in assay [6]. The GI50 in [7] is 67.9 µM (inactive); in assay [8] it was 32.6 µM (inactive); in assay [9] it was 19.3 µM (inactive); in assay [10] it was 21.2 µM (inactive); in assay [11], 33.7 µM (inactive); in assay [12] it was 21.7 µM (inactive). The GI50 is 30.1 µM (inactive) in assay [13]; 48.9 µM (inactive) in [14]; 39.6 µM (inactive) in [15]; 26.4 µM (inactive) in assay [16]; 22.4 µM (inactive) in assay [17]; 19.6 µM (inactive) in assay [18].
Turning to `Cc1c(C)c(C)c(Cn2[nH]c(=O)n(C)c2=O)c(C)c1C`, the GI50 in [1], in assay [2], in assay [3], in assay [4], in assay [5] and in [6] was > 100 µM (inactive) each time. Moreover, the GI50 in assay [7], in [8], in assay [9], in [10], in assay [11] and in assay [12] was > 100 µM (inactive) in each case. The GI50 in assay [13], in [14], in [16], in assay [17] and in [18] was > 100 µM (inactive) each time.
As for `COC(=O)CCNC(=O)OCc1ccccc1`, the GI50 in [1], in assay [2], in [3], in assay [4], in assay [5] and in assay [6] was > 100 µM (inactive) each time. The GI50 in [7], in assay [8], in [9], in assay [10], in [11] and in assay [12] was > 100 µM (inactive) throughout. Further, the GI50 in assay [13], in assay [14], in [15], in assay [16], in assay [17] and in [18] was > 100 µM (inactive) each time.
As to `CN1CCN(CCCBr)CC1`, the GI50 in [1], in [2], in [3], in assay [19], in assay [5] and in assay [6] was > 100 µM (inactive) in each case. The GI50 in [8], in assay [9], in [10], in assay [11], in assay [12] and in assay [13] was > 100 µM (inactive) in each case. Moreover, the GI50 in assay [14], in [15], in assay [16], in [20], in [17] and in assay [18] was > 100 µM (inactive) each time.
As to `CN1CCCN(C)C1c1cc([N+](=O)[O-])ccc1O`, the GI50 is 22 µM (inactive) in [1]; 34.1 µM (inactive) in [2]; 26.5 µM (inactive) in assay [3]; 32 µM (inactive) in assay [19]; 22.1 µM (inactive) in [4]; 31 µM (inactive) in [5]. Besides, the GI50 is 24.9 µM (inactive) in assay [6]; 70.6 µM (inactive) in [8]; 33.8 µM (inactive) in assay [9]; 0.436 µM (active) in [10]; 25.2 µM (inactive) in assay [11]; 32.6 µM (inactive) in assay [12]. For the same compound, the GI50 in [13] is 19.1 µM (inactive); in assay [14], 40.7 µM (inactive); in [15], 41.8 µM (inactive); in assay [16], 30.1 µM (inactive); in [20], 41.4 µM (inactive); in [17] it was 19 µM (inactive). Further, in assay [18], the GI50 is 26.3 µM (inactive).
